Assay results reported in article PMC9090415, “Discovery of small molecule inhibitors of Plasmodium falciparum apicoplast DNA polymerase” (Journal of Enzyme Inhibition and Medicinal Chemistry, 2022).

Target: P. falciparum apicoplast DNA polymerase (Pf-apPOL) (Plasmodium falciparum, UniProt Q8ILY1)
Test: Fluorescence-based high-throughput DNA polymerase assay (molecular beacon), primary screen and dose-response
Format: biochemical
How it was run: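 Single-point screening used 10 µM compound with 20 nM polymerase, 20 nM hairpin substrate and 6 µM dNTPs for 90 min at 25 °C. Confirmatory titrations (2.5–80 µM) followed fluorescence at three times, and IC50 was derived from a fit including a cooperativity term n.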

Sequence of P. falciparum apicoplast DNA polymerase (Pf-apPOL) (Q8ILY1 entry or part of it): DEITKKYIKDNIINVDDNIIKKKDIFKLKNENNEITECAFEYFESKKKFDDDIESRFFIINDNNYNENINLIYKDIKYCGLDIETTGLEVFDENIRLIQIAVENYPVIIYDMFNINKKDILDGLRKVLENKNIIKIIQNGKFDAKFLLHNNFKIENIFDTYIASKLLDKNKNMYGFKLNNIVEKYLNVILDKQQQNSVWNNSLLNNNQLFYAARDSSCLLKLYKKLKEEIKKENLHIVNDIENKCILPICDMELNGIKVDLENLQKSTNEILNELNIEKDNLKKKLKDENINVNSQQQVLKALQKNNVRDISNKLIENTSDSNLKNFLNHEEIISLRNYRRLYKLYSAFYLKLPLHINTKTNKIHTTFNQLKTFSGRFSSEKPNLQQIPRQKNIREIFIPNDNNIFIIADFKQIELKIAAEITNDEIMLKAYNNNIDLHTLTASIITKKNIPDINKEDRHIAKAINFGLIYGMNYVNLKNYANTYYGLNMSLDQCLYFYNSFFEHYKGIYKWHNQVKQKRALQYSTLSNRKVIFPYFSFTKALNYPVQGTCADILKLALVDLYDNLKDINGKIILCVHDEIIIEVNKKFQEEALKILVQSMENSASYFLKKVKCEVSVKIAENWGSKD

Cc1ccnc(NS(=O)(=O)c2ccc(-n3cccc3)cc2)n1 [KU0034899]
% inhibition Apo pol 10' (DRC-1; concentration 2.5; 10'): 6.567% | % inhibition Apol 90' (DRC-1; concentration 2.5; 90'): 1.285% | % inhibition apPOL 180' (DRC-1; concentration 2.5; 180'): -4.513% | % inhibition Apo pol 10' (DRC-1; concentration 5; 10'): 25.8281% | % inhibition Apol 90' (DRC-1; concentration 5; 90'): 11.3898% | % inhibition apPOL 180' (DRC-1; concentration 5; 180'): 1.685% | % inhibition Apo pol 10' (DRC-1; concentration 10; 10'): 43.5691% | % inhibition Apol 90' (DRC-1; concentration 10; 90'): 23.2373% | % inhibition apPOL 180' (DRC-1; concentration 10; 180'): 9.9045% | % inhibition Apo pol 10' (DRC-1; concentration 20; 10'): 72.9985% | % inhibition Apol 90' (DRC-1; concentration 20; 90'): 50.5873% | % inhibition apPOL 180' (DRC-1; concentration 20; 180'): 29.9217% | % inhibition Apo pol 10' (DRC-1; concentration 40; 10'): 90.805% | % inhibition Apol 90' (DRC-1; concentration 40; 90'): 80.4805% | % inhibition apPOL 180' (DRC-1; concentration 40; 180'): 67.6388% | % inhibition Apo pol 10' (DRC-1; concentration 80 (unit not given); 10'): 93.2113% | % inhibition Apol 90' (DRC-1; concentration 80; 90'): 92.1996% | % inhibition apPOL 180' (DRC-1; concentration 80; 180'): 89.3134% | % inhibition Apol 40' (DRC-2; 40'; concentration 80): 59% | % inhibition ApPOL 90' (DRC-2; 90'; concentration 20): 59% | % inhibition Apo pol 5' (DRC-2; concentration 2.5; 5'): 26% | % inhibition Apol 40' (DRC-2; concentration 2.5; 40'): 31% | % inhibition ApPOL 90' (DRC-2; concentration 2.5; 90'): 29% | % inhibition apPOL 180' (DRC-2; concentration 2.5; 180'): 19% | % inhibition Apo pol 5' (DRC-2; concentration 5; 5'): 23% | % inhibition Apol 40' (DRC-2; concentration 5; 40'): 20% | % inhibition ApPOL 90' (DRC-2; concentration 5; 90'): 14% | % inhibition apPOL 180' (DRC-2; concentration 5; 180'): 0.78% | % inhibition Apo pol 5' (DRC-2; concentration 10; 5'): 41% | % inhibition Apol 40' (DRC-2; concentration 10; 40'): 42% | % inhibition ApPOL 90' (DRC-2; concentration 10; 90'): 37% | % inhibition apPOL 180' (DRC-2; concentration 10; 180'): 21% | % inhibition Apo pol 5' (DRC-2; concentration 20; 5'): 49% | % inhibition Apol 40' (DRC-2; concentration 20; 40'): 62% | % inhibition ApPOL 90' (DRC-2; concentration 20; 90'): 59% | % inhibition apPOL 180' (DRC-2; concentration 20; 180'): 48% | % inhibition Apo pol 5' (DRC-2; concentration 40; 5'): 52% | % inhibition Apol 40' (DRC-2; concentration 40; 40'): 73% | % inhibition ApPOL 90' (DRC-2; concentration 40; 90'): 75% | % inhibition apPOL 180' (DRC-2; concentration 40; 180'): 74% | % inhibition Apo pol 5' (DRC-2; concentration 80; 5'): 17% | % inhibition Apol 40' (DRC-2; concentration 80; 40'): 59% | % inhibition ApPOL 90' (DRC-2; concentration 80; 90'): 67% | % inhibition apPOL 180' (DRC-2; concentration 80; 180'): 76% | DNA Pol (primary screen value of the 186 hits; unit not given; 90 min, 10 µM): 40 | DNA Pol (primary screen value; head prints only 'DNA Pol'; 90 min, 10 µM): 40

O=C(NNC(=O)C(F)(F)Sc1ccccc1)c1ccsc1 [Molecule 68]
IC50 (supplemental file 2, sheet IC50 nontoxic compounds; Pf-apPOL): 21 µM

CCCCc1ccc(NC(=O)CSc2nc(C3CCCCC3)c(C#N)c(=O)[nH]2)c(C)c1 [Molecule 8, CCCCc1ccc(c(c1)C)NC(=O)CSc1nc(C2CCCCC2)c(c(=O)[nH]1)C#N]
DNA Pol ('DNA Pol' of the 186 hits list (primary screen result); unit not given; 90 min, 10 µM): 95 | % inhibition Apo pol 10' (DRC-1; 10'; concentration 2.5): -1.955% | % inhibition Apo pol 10' (DRC-1; 10'; concentration 5): 13.3371% | % inhibition Apo pol 10' (DRC-1; 10'; concentration 10): 62.6303% | % inhibition Apo pol 10' (DRC-1; 10'; concentration 20): 77.3201% | % inhibition Apo pol 10' (DRC-1; 10'; concentration 40): 94.4176% | % inhibition Apo pol 10' (DRC-1; 10'; concentration 80): 94.8178% | % inhibition Apol 90' (DRC-1; 90'; concentration 2.5): 1.126% | % inhibition Apol 90' (DRC-1; 90'; concentration 5): 14.1038% | % inhibition Apol 90' (DRC-1; 90'; concentration 10): 58.4598% | % inhibition Apol 90' (DRC-1; 90'; concentration 20): 77.2827% | % inhibition Apol 90' (DRC-1; 90'; concentration 40): 94.9708% | % inhibition Apol 90' (DRC-1; 90'; concentration 80): 95.9505% | % inhibition apPOL 180' (DRC-1; 180'; concentration 2.5): 1.158% | % inhibition apPOL 180' (DRC-1; 180'; concentration 5): 7.482% | % inhibition apPOL 180' (DRC-1; 180'; concentration 10): 46.1044% | % inhibition apPOL 180' (DRC-1; 180'; concentration 20): 69.2922% | % inhibition apPOL 180' (DRC-1; 180'; concentration 40): 95.0497% | % inhibition apPOL 180' (DRC-1; 180'; concentration 80): 96.1544% | % inhibition Apo pol 5' (DRC-2, 5', concentration 20 (unit not given)): 40% | % inhibition Apol 40' (DRC-2, 40', concentration 20 (unit not given)): 48% | % inhibition ApPOL 90' (DRC-2, 90', concentration 20 (unit not given)): 48% | % inhibition apPOL 180' (DRC-2, 180', concentration 20 (unit not given)): 40% | % inhibition Apo pol 5' (DRC-2; 5'; concentration 2.5): -2.67% | % inhibition Apo pol 5' (DRC-2; 5'; concentration 5): 2.83% | % inhibition Apo pol 5' (DRC-2; 5'; concentration 10): 12% | % inhibition Apo pol 5' (DRC-2; 5'; concentration 20): 40% | % inhibition Apo pol 5' (DRC-2; 5'; concentration 40): 61% | % inhibition Apo pol 5' (DRC-2; 5'; concentration 80): 65% | % inhibition Apol 40' (DRC-2; 40'; concentration 2.5): 1.81% | % inhibition Apol 40' (DRC-2; 40'; concentration 5): 5% | % inhibition Apol 40' (DRC-2; 40'; concentration 10): 16% | % inhibition Apol 40' (DRC-2; 40'; concentration 20): 48% | % inhibition Apol 40' (DRC-2; 40'; concentration 40): 72% | % inhibition Apol 40' (DRC-2; 40'; concentration 80): 79% | % inhibition ApPOL 90' (DRC-2; 90'; concentration 2.5): 1.18% | % inhibition ApPOL 90' (DRC-2; 90'; concentration 5): 4% | % inhibition ApPOL 90' (DRC-2; 90'; concentration 10): 15% | % inhibition ApPOL 90' (DRC-2; 90'; concentration 20): 48% | % inhibition ApPOL 90' (DRC-2; 90'; concentration 40): 73% | % inhibition ApPOL 90' (DRC-2; 90'; concentration 80): 83% | % inhibition apPOL 180' (DRC-2; 180'; concentration 2.5): -0.672% | % inhibition apPOL 180' (DRC-2; 180'; concentration 5): -0.274% | % inhibition apPOL 180' (DRC-2; 180'; concentration 10): 9% | % inhibition apPOL 180' (DRC-2; 180'; concentration 20): 40% | % inhibition apPOL 180' (DRC-2; 180'; concentration 40): 71% | % inhibition apPOL 180' (DRC-2; 180'; concentration 80): 86% | DNA Pol (primary screen value of the library well; unit not given; 90 min, 10 µM): 95
